Results on 11 compounds are retold here after publication PMC9917406, “Synthesis, Biological and In Silico Studies of Griseofulvin and Usnic Acid Sulfonamide Derivatives as Fungal, Bacterial and Human Carbonic Anhydrase Inhibitors” (International Journal of Molecular Sciences, 2023).

What all share (assay type): biochemical
Assay [1] has as its target hCA II (Homo sapiens, UniProt P00918). Nature of the assay: stopped-flow CO2 hydrase assay, hCA II. Particulars: for pKi: mean from 3 different assays, errors ±5–10%.
The target in assay [2] is T1, SmuCA (Streptococcus mutans, UniProt Q8DVY1).
T1 sequence (Q8DVY1 1-166): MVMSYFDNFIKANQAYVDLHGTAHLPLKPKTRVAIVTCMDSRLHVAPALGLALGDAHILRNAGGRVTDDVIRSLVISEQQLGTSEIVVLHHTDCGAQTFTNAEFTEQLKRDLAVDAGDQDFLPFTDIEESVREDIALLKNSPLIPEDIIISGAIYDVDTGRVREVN
Kind of assay: stopped-flow CO2 hydrase assay, SmuCA. The conditions noted are these: for pKi: mean from 3 different assays, errors ±5–10%.

Assay [3] deals with hCA I (Homo sapiens, UniProt P00915). Nature of the assay: stopped-flow CO2 hydrase assay, hCA I. The conditions noted are these: mean from 3 different assays, errors ±5–10%.
The target in assay [4] is T2, MgCA (Malassezia globosa, UniProt A8Q1N3).
T2 sequence (A8Q1N3 1-241): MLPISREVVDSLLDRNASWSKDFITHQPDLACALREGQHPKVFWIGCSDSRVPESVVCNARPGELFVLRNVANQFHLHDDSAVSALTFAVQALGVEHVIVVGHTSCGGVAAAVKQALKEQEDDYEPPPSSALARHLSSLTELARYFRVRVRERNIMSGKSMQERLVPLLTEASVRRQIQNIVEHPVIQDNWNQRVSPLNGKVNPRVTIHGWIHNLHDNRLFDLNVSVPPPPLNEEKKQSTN
Kind of assay: stopped-flow CO2 hydrase assay, MgCA. The conditions noted are these: mean from 3 different assays, errors ±5–10%.

For assay [5], the target named is T3, PgiCAγ (Porphyromonas gingivalis, UniProt Q7MV79).
T3 sequence (Q7MV79 1-192): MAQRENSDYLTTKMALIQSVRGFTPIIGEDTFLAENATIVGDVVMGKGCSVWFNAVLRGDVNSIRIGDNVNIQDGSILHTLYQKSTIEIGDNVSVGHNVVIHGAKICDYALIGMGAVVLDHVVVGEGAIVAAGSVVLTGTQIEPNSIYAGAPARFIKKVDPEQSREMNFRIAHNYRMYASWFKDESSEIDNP
Kind of assay: stopped-flow CO2 hydrase assay, PgiCAγ. Particulars: for pKi: mean from 3 different assays, errors ±5–10%.

Assay [6] has as its target CpsCAγ (Colwellia psychrerythraea, UniProt Q48AV3). Kind of assay: biochemical.
In assay [7] the target is BpsCAγ (Burkholderia pseudomallei, UniProt Q63SQ4). Particulars: read-out: KI BpsCAγ.
The target in assay [8] is hCA IX (Homo sapiens, UniProt Q16790). Nature of the assay: stopped-flow CO2 hydrase assay, hCA IX. Particulars: mean from 3 different assays, errors ±5–10%; read-out: KI hCAIX.
In assay [9] the target is T4, PgiCAβ (Porphyromonas gingivalis, UniProt B2RL07).
T4 sequence (B2RL07 19-242): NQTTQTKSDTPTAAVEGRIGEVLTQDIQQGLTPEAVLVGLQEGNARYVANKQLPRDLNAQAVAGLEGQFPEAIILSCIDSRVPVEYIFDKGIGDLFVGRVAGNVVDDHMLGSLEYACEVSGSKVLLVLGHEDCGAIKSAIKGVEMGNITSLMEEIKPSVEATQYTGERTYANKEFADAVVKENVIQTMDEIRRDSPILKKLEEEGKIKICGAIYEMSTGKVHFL
Kind of assay: stopped-flow CO2 hydrase assay, PgiCAβ. Particulars: mean from 3 different assays, errors ±5–10%.

Setting [10] is: mean from 3 different assays, errors ±5–10%, read-out: KI CpsCAγ.

SMILES strings stand for the structures. pKi: −log10 of the molar value. Read-outs that look alike come from different tables or passages of the source.

Chain of BpsCAγ (Q63SQ4 1-174): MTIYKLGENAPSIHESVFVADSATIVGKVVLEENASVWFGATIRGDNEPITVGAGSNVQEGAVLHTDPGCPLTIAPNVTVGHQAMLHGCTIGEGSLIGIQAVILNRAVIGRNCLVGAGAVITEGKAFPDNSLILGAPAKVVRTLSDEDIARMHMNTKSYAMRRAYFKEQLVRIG
Chain of CpsCAγ (Q48AV3 entry or part of it): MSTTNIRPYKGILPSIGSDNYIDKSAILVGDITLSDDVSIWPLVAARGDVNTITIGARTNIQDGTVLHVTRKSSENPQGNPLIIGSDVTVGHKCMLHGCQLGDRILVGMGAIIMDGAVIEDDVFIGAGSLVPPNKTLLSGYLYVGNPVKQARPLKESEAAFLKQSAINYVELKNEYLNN
Chain of hCA I (P00915 whole entry): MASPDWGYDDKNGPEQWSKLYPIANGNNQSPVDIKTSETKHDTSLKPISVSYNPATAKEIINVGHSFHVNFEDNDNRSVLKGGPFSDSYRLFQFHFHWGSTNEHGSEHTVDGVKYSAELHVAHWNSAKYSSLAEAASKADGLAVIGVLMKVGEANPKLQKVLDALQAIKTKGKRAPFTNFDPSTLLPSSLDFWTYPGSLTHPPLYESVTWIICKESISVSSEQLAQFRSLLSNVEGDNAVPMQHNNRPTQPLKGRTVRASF

Take `COc1cc(OC)c2c(c1Cl)OC1(C(=O)C=C(NCCS(N)(=O)=O)CC1C)C2=O` [Compound 1a, 2-(((2S,6′R)-7-chloro-4,6-dimethoxy-6′-methyl-2′,3-dioxo-3H-spiro[benzofuran-2,1′-cyclohexan]-3′-en-4′-yl)amino)ethane-1-sulfonamide]: the negative logarithm of the Ki (pKi) – broadly, −log10 of the Ki, conventionally taken in molar units – in [1] is 6.18; in assay [2], 5.79; in assay [3], 6.25; in assay [4], 6.26; in assay [5] it was 7.04; in [6], 5.50. Moreover, the pKi in [7] is 6.35; in assay [8], 7.51; in assay [9], 6.11. Besides, the “SI towards PgiCAβ” value in assay [5] (PgiCAγ inhibition relative to PgiCAβ) stood at 8.5. Besides, the “fold more active than acetazolamide” value in [5] (against PgiCAγ) came to 3.5 fold.

For the compound `COc1cc(OC)c2c(c1Cl)OC1(C(=O)C=C(Nc3ccc(S(N)(=O)=O)cc3)CC1C)C2=O` [Compound 1b, 4-(((2S,6′R)-7-chloro-4,6-dimethoxy-6′-methyl-2′,3-dioxo-3H-spiro[benzofuran-2,1′-cyclohexan]-3′-en-4′-yl)amino)benzenesulfonamide], the negative logarithm of the Ki (pKi) was 7.19 in assay [1]; 6.53 in [2]; 6.63 in assay [3]; 6.32 in assay [4]; 6.09 in [5]; 6.03 in assay [6]. Also, the pKi in assay [7] is 6.02; in assay [8], 6.69; in assay [9], 6.09. Also, the “SI towards all other bacterial strains” value in assay [2] (S. mutans CA inhibition relative to other bacterial CAs) is on record as 3.

Take `COc1cc(OC)c2c(c1Cl)OC1(C(=O)C=C(NCc3ccc(S(N)(=O)=O)cc3)CC1C)C2=O` [Compound 1c, 4-((((2S,6′R)-7-chloro-4,6-dimethoxy-6′-methyl-2′,3-dioxo-3H-spiro[benzofuran-2,1′-cyclohexan]-3′-en-4′-yl)amino)methyl)benzenesulfonamide]: the pKi is 7.54 in assay [1]; 5.40 in assay [2]; 7.13 in [3]; 6.25 in assay [4]; 6.18 in assay [5]; 6.05 in assay [6]. Besides, the pKi was 6.08 in assay [7], 6.99 in assay [8] and 6.05 in assay [9].

Turning to `COc1cc(OC)c2c(c1Cl)OC1(C(=O)C=C(Nc3ccc(S(N)(=O)=O)cc3O)CC1C)C2=O` [Compound 1d, 4-(((2S,6′R)-7-chloro-4,6-dimethoxy-6′-methyl-2′,3-dioxo-3H-spiro[benzofuran-2,1′-cyclohexan]-3′-en-4′-yl)amino)-3-hydroxybenzenesulfonamide], the “selectivity index (SI) towards hCA I” value in assay [1] (hCA II inhibition relative to hCA I) amounted to 5.88. In addition, the “selectivity index (SI) towards hCA IX” value in assay [1] (hCA II inhibition relative to hCA IX) worked out at 6.00. Moreover, the pKi in assay [1] was 8.31; in assay [2], 6.05; in [3], 7.54; in [4], 5.80; in assay [5], 6.23; in assay [6], 6.23. The pKi is 6.06 in [7], 7.53 in [8] and 5.89 in assay [9].

On to `COc1cc(OC)c2c(c1Cl)O[C@@]1(C(=O)/C(=C\NCc3ccc(S(N)(=O)=O)cc3)C(=O)C[C@H]1C)C2=O` [Compound 1e], for which the negative-log Ki (pKi) in [1] was 6.78; in [2] it was 5.79; in assay [3], 6.49; in assay [4], 5.74; in [5] it was 5.90; in [6] it was 6.66. The results for the pKi in assay [7], in assay [8] and in assay [9] were 5.97, 7.53 and 6.03, respectively.

With `COc1cc(OC)c2c(c1Cl)O[C@@]1(C(=O)C(=CNCCc3ccc(S(N)(=O)=O)cc3)C(=O)C[C@H]1C)C2=O` [Compound 1f, 4-(2-((((2R,2′R)-7-chloro-4,6-dimethoxy-2′-methyl-3,4′,6′-trioxo-3H-spiro[benzofuran-2,1′-cyclohexan]-5′-ylidene)methyl)amino)ethyl)benzenesulfonamide], the pKi in assay [1] was 7.15; in [2], 5.61; in [3], 6.46; in assay [4] it was 5.40; in assay [5] it was 6.22; in assay [6] it was 6.14. The negative logarithm of the Ki (pKi) was 5.64 in assay [7], 7.51 in assay [8] and 5.08 in assay [9].

Regarding `COc1cc(C(CC(=O)NCCS(N)(=O)=O)C2C(=O)C[C@@H](C)[C@]3(Oc4c(Cl)c(OC)cc(OC)c4C3=O)C2=O)ccc1O` (stereo partly shown) [Compound 1g], the negative logarithm of the Ki (pKi) in assay [1] is 5.39; in [2], 5.91; in [3], 5.52; in assay [4], 5.50; in [5], 5.65; in [6] (setting [10]), 6.52. Further, the pKi in assay [7] was 5.63; in assay [8], 6.15; in assay [9] it was 5.25.

As to `COc1cc(OC)c2c(c1Cl)O[C@]1(C2=O)C(=O)C(C(CC(=O)NCc2ccc(S(N)(=O)=O)cc2)c2ccc(SC)cc2)C(=O)C[C@H]1C` (stereo partly shown) [Compound 1h], the pKi was 8.12 in assay [1]; 6.24 in [2]; 7.39 in [3]; 5.36 in [4]; 6.07 in assay [5]; 6.20 in assay [6] (setting [10]). For the same compound, the negative logarithm of the Ki (pKi) is 5.85 in assay [7], 7.13 in assay [8] and 5.24 in assay [9].

On to `COc1cc(OC)c2c(c1Cl)O[C@]1(C2=O)C(=O)C(C(CC(=O)NCCc2ccc(S(N)(=O)=O)cc2)c2ccc(SC)cc2)C(=O)C[C@H]1C` (stereo partly drawn) [Compound 1i, 3-((2S,2′R)-7-chloro-4,6-dimethoxy-2′-methyl-3,4′,6′-trioxo-3H-spiro[benzofuran-2,1′-cyclohexan]-5′-yl)-3-(4-(methylthio)phenyl)-N-(4-sulfamoylphenethyl)propenamide], for which the negative logarithm of the Ki (pKi) in [1] was 8.09; in assay [2], 6.05; in assay [3], 7.82; in assay [4], 5.72; in [5] it was 6.07; in assay [6] (setting [10]), 6.09. In addition, the pKi in assay [7] is 5.98; in assay [8] it was 7.63; in assay [9], 6.30.

Take `COc1cc(OC)c2c(c1Cl)O[C@]1(C2=O)C(=O)C(C(CC(=O)NCC(=O)Nc2ccc(S(N)(=O)=O)cc2)c2ccc(SC)cc2)C(=O)C[C@H]1C` (stereo partly drawn) [Compound 1j, 3-((2S,2′R)-7-chloro-4,6-dimethoxy-2′-methyl-3,4′,6′-trioxo-3H-spiro[benzofuran-2,1′-cyclohexan]-5′-yl)-3-(4-(methylthio)phenyl)-N-(2-oxo-2-((4-sulfamoylphenyl)amino)ethyl)propenamide]: the pKi in assay [1] was 8.24; in assay [2], 5.91; in [3] it was 7.56; in assay [4], 5.69; in assay [5] it was 5.63; in assay [6] (setting [10]), 6.75. For the same compound, the negative logarithm of the Ki (pKi) was 6.15 in [7], 7.65 in assay [8] and 5.52 in assay [9]. Moreover, the “SI towards BpsCAγ” value in [6] (CpsCAγ inhibition relative to BpsCAγ) is given as 4. Besides, the “SI towards PgiCAγ” value in assay [6] (CpsCAγ inhibition relative to PgiCAγ) amounted to 13. The “SI towards S. mutans” value in [6] (CpsCAγ inhibition relative to S. mutans CA) is given as 6.9.

`CC(=O)c1c(O)c(C)c(O)c2c1OC1=CC(=O)C(=C(C)Nc3cc(S(N)(=O)=O)ccc3O)C(=O)[C@@]12C` [Compound 4b, (R)-3-((1-(6-acetyl-7,9-dihydroxy-8,9b-dimethyl-1,3-dioxo-3,9b-dihydrodibenzo[b,d]furan-2(1H)-ylidene)ethyl)amino)-4-hydroxybenzenesulfonamide]: the pKi in assay [1] is 6.12; in assay [2], 5.77; in assay [4], 5.60; in [5], 5.73; in assay [6], 6.09; in [7] it was 6.00. Further, the pKi is 6.52 in [8] and 6.12 in [9].
